Columns and labels:
[1] = target: human β2-adrenergic receptor (hβAR) (Homo sapiens, UniProt P07550)
Description: After 36 hours, cells were harvested and spheroplasts were prepared as described. […] Briefly, the spheroplasts were resuspended in 50 mM Tris-HCl pH 7.4, 5 mM EDTA and were lysed by vortex mixing with glass beads for three one-min periods at 4° C.
FIG. 2 illustrates hβAR ligand binding to membranes from pYβAR2-transformed yeast cells. […] Specific binding was defined as the amount of total binding (circles) minus nonspecific binding measured in the presence of 10 μM (−) alprenolol (squares).

[2] = test system: 8c cells coexpressing hβAR and rat Gsα; experiment: Shmoo formation (morphology) of yeast strain 8c (gpa1) coexpressing hβAR and rat Gsα
Description: Colonies were transferred to similar plates containing 0.5 mM ascorbic acid and the indicated adrenergic ligand(s). After 16-20 hours at 30° C., the colonies were transferred to similar liquid media at a density of 10^6-10^7 cells/ml and examined by phase contrast microscopy.

[3] = test system: pheromone-responsive FUS1 gene promoter; experiment: FUS1-lacZ β-galactosidase induction in 8cl (gpal) cells coexpressing hβAR and rat Gsα; format: cell-based, yeast
Description: To confirm that the pheromone signaling pathway was activated by hβAR and rat Gsα, agonist induction of the pheromone-responsive FUSl gene promoter was measured in a strain of yeast derived from 8c cells (8cl) in which a FUS1-lacZ gene fusion had been stably integrated into the genome.
Strains 8c (FIG. 3, legend) and NNY19 (MATa ura3 leu2 his3 trp1 lys2 FUSl-LacZ::LEU2) were modified by integrative transformation with YIpFUS102 (LEU2), S. Nomoto et al., supra, and designated 8cl and NNY19, respectively. These strains were transformed with pYβAR2 and pYSK136Gαs and maintained on minimal selective plates containing glucose and 50 μM CuSO4. […] See J. Miller, supra.
Agonist stimulation was stereoselective and was blocked by addition of a specific antagonist. Agonist responsiveness was dependent on expression of both hβAR and rat Gsα, and required a strain in which the endogenous G protein α-subunit was disrupted.

[4] = target: T1, Human β-Adrenergic Receptor (Homo sapiens, UniProt P07550); conditions: Monkey COS-7 (pBC12: β, BAR); cited from earlier work
T1 construct: expressed in transfected cells; host or cells: monkey COS-7 cells

## (−) epinephrine
[1]
  Ki: 664 ± 123 nM

## CC(C)NCC(O)c1ccc(O)c(O)c1 (stereo not drawn) [isoproterenol]
[2]; 100 μM isoproterenol, 16-20 hours at 30° C., phase contrast microscopy
  shmoo formation: induced shmoo formation
[3]; 8cl (gpal) cells, 4 hour incubation at 30° C.
  induction of β-galactosidase activity: dramatic isoproterenol-stimulated induction
[3]; transformed 8cl cells vs NNY19 cells expressing GPA1
  final β-galactosidase activity relative to α-factor in nontransformed NNY19 cells: comparable to that induced by α-factor

## C=CCc1ccccc1OCC(O)CNC(C)C (stereo not drawn) [alprenolol]
[2]; 100 μM (−) isoproterenol and 50 μM (−) alprenolol
  block of isoproterenol-induced shmoo formation: blocked

## CC(C)(C)NC[C@H](O)COc1cccc2[nH]c(C#N)c(I)c12 [125I-CYP, 125I-labeled cyanopindolol]
[1]; read-out: Kd for 125I-CYP binding, 125I-CYP 5-400 pM, nonspecific binding with 10 μM (−) alprenolol
  Kd: 0.093 nM

## CC(C)(C)NC[C@H](O)COc1cccc2[nH]c(C#N)c([125I])c12 [125I-CYP, 125I-labeled cyanopindolol]
[4]
  Bmax, maximum ligand bound: 24 pmol/mg
[1]; Yeast SC261 (pYβAR2, pMTL9) membranes
  Bmax, maximum ligand bound: 115 pmol/mg
[1]; membranes from pYβAR2-transformed yeast cells
  binding of 125I-CYP to membranes: bound in a saturable manner and with high affinity

From patent US7413876B2 (priority 1990, dated 2008)
